Assay results published in US10392369B2, “N-[(pyrimidinyloxy)propanyl]benzamides” (Boehringer Ingelheim International GmbH, priority 2016, dated 2019).
Where two headings read alike, the source gives them in different places.

Tests used:
human Orexin 1 receptor = molecular target: T1, human Orexin 1 receptor (Homo sapiens, UniProt O43613); test: Assay A: OX1R IP1 (in vitro OX1R potency); type: cell-based; conditions: for Kb: Table 3, read-out: Assay A OX1R Kb (Orexin A concentration); for OX1R selectivity over OX2R (selectivity ratio OX2R Kb/OX1R Kb) compared to Example 91 in WO2016/034882 / OX1R potency compared to Example 91 in WO2016/034882: in words, versus Example 91 in WO2016/034882
T1 construct: stably expressing the full-length human Orexin 1 receptor; expressed in transfected cells; host or cells: CHO-K1 (CHO-K1/hOx1), co-expressing the aequorin photoprotein
T1 sequence (O43613 1-425): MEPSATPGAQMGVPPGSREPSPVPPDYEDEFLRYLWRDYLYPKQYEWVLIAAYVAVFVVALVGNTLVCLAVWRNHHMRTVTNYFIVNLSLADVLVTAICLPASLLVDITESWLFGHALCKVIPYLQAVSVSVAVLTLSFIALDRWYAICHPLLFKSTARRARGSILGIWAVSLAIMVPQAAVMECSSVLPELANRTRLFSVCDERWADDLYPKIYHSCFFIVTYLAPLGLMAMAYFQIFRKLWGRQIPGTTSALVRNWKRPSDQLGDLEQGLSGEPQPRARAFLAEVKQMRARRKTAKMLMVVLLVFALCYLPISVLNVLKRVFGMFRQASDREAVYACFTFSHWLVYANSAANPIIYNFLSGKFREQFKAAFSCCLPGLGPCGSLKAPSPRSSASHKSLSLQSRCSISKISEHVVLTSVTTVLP
Source text: Activation of the orexin receptors expressed in cell lines results in an increase in intracellular IP3 concentration. IP1, a downstream metabolite of IP3, accumulates in cells following receptor activation and is stable in the presence of LiCl. Using Homogeneous Time-Resolved Fluorescence technology with Lumi4-Tb cryptate (commercially available from Cisbio Bioassay.) and a suitable fluorescence plate reader. […] This technique is used to characterize pharmacological modification of the orexin receptors.
A. In Vitro Testing of OX1R Potency: OX1R IP1
IP1 measurements are performed in CHO-K1 cells stably expressing the full-length human Orexin 1 receptor and the aequorin photoprotein. Cells are cultivated in Ham's nutrient mixture F12 medium with 10% fetal calf serum, in a 37° C., 95% humidity and 5% CO2 incubator. The CHO-K1/hOx1 cell mass is expanded to larger cell numbers. The cells are obtained as frozen cells in cryo-vials and stored until use at −150° C. […] In preparation for the assay, 24 hours before the assay, the cells are thawed at 37° C. and immediately diluted with cell culture medium. After centrifugation, the cell pellet is re-suspended in medium and then distributed into the assay plates with a density of 10000 cells/25 μL per well. The plates are incubated for one hour at room temperature to reduce edge effects before they are incubated for 24 hours at 37° C./5% CO2. Compounds are prepared by an 8-point serial dilution in DMSO and a final dilution step into assay buffer (HBSS with 20 mM HEPES, 0.1% BSA and 50 mM LiCl, pH 7.4) to ensure a final DMSO concentration of 1% in the assay.
(§1) On the day of the assay, cells in the plate are washed twice with 60 μL assay buffer (20 μL buffer remained in the wells after washing), followed by adding 5 μL per well of compounds diluted in assay buffer. After 15 minutes of incubation at room temperature 5 μL per well of Orexin A peptide (final concentration: 0.5 nM and/or 50 nM) dissolved in assay buffer is added to the assay plate. The assay plate is incubated for 60 minutes at 37° C. Then 5 μl per well of Anti-IP1-Cryptate Tb solution and 5 μl per well of IP1-d2 dilution are added and the plate is incubated for a further 60 minutes light protected at room temperature.
(§2) 8-point four parametric non-linear curve fitting and determination of IC50 values and Hill slopes is performed using a regular analysis software e.g. AssayExplorer (Accelrys). In order to establish an agonist concentration independent parameter, Kb values are calculated using the following equation: IC50/((2+(A/EC50)^n)^1/n−1) (with A=concentration agonist, EC50=EC50 agonist, n=Hill slope agonist).

human orexin 2 receptor = molecular target: T2, human orexin 2 receptor (Homo sapiens, UniProt O43614); test: Assay B: OX2R IP1 (in vitro OX2R potency); type: cell-based; conditions: Table 3; 0.5 nM Orexin A
T2 construct: stably expressing the full-length human orexin 2 receptor; expressed in transfected cells; host or cells: CHO-K1 (CHO-K1/hOx2), co-expressing the aequorin photoprotein
T2 sequence (O43614 1-444): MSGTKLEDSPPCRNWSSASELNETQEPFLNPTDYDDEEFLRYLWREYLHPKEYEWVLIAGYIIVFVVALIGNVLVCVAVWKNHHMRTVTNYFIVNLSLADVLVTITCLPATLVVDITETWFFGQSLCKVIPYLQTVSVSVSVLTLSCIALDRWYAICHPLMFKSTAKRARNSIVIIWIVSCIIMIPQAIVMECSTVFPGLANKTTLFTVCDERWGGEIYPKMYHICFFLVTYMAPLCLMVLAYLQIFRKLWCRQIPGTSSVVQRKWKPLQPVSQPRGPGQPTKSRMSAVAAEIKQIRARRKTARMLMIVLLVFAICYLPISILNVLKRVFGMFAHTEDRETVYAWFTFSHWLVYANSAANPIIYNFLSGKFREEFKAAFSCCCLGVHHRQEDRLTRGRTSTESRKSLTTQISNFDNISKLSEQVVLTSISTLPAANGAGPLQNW
Source text: Activation of the orexin receptors expressed in cell lines results in an increase in intracellular IP3 concentration. IP1, a downstream metabolite of IP3, accumulates in cells following receptor activation and is stable in the presence of LiCl. Using Homogeneous Time-Resolved Fluorescence technology with Lumi4-Tb cryptate (commercially available from Cisbio Bioassay.) and a suitable fluorescence plate reader. […] Chem. Genomics 2009, 3, 22-32. This technique is used to characterize pharmacological modification of the orexin receptors.
B. In Vitro Testing of OX2R Potency: OX2R IP1
IP1 measurements are performed in CHO-K1 cells stably expressing the full-length human orexin 2 receptor and the aequorin photoprotein. Cells are cultivated in Ham's nutrient mixture F12 medium with 10% fetal calf serum, in a 37° C., 95% humidity and 5% CO2 incubator. The CHO-K1/hOx2 cell mass is expanded to larger cell numbers. The cells are obtained as frozen cells in cryo-vials and stored until use at −150° C. The viability of the cells after thawing is >90%. In preparation for the assay, 24 hours before the assay, the cells are thawed at 37° C. and immediately diluted with cell culture medium. After centrifugation, the cell pellet is resuspended in medium and then distributed into the assay plates with a density of 5000 cells/25 μL per well. The plates are incubated for one hour at room temperature to reduce edge effects before they are incubated for 24 hours at 37° C./5% CO2. Compounds are prepared by a 8-point serial dilution in DMSO and a final dilution step into assay buffer (HBSS with 20 mM HEPES, 0.1% BSA and 50 mM LiCl, pH 7.4) to ensure a final DMSO concentration of 1% in the assay.
as §1, with “concentration: 0.5 nM) dissolved” for “concentration: 0.5 nM and/or 50 nM) dissolved”, “are added to all well of the plate and the” for “are added and the”, “room temperature. The emission at 615 nm and 665 nm (Excitation wavelength: 320 nm) are measured using an EnVision reader (PerkinElmer). The ratio between the emission at 665 nm and 615 is calculated by the reader.” for “room temperature.”
as §2, with “of […]” for “of IC50”, “slope agonist) (see P. Leff, I. G. Dougall, Trends Pharmacol. Sci. 1993, 14(4), 110-112).” for “slope agonist).”

SMILES | Kb (human Orexin 1 receptor; 0.5 nM Orexin A) | Kb (human Orexin 1 receptor; 50 nM Orexin A) | OX1R selectivity over OX2R (selectivity ratio OX2R Kb/OX1R Kb) compared to Example 91 in WO2016/034882 (human Orexin 1 receptor) | Kb (human orexin 2 receptor) | OX2R Kb/OX1R Kb (human Orexin 1 receptor) | OX1R potency compared to Example 91 in WO2016/034882 (human Orexin 1 receptor)
CCN(C(=O)c1cccc(F)c1-n1nccn1)[C@@H](C)COc1ncc(C(F)(F)F)cn1 [Example 1] | 1.7 nM | 2.5 nM | more selective | 425 nM |  | 
CCN(C(=O)c1cc(C)c(C)cc1-n1nccn1)[C@@H](C)COc1ncc(C(F)(F)F)cn1 [Example 2] |  | 0.39 nM |  | 34 nM | 87 | increase in OX1R potency
CCN(C(=O)c1cc(C)ccc1-n1nccn1)[C@@H](C)COc1ncc(C(F)(F)F)cn1 [Example 5] | 1 nM | 1.1 nM | increase | 156 nM |  | increase
CCN(C(=O)c1ccc(F)cc1-n1nccn1)[C@@H](C)COc1ncc(C(F)(F)F)cn1 [Example 7] | 4.5 nM |  | more selective | 902 nM | 201 | 
CCN(C(=O)c1cc(C)ccc1-n1cccn1)[C@@H](C)COc1ncc(C(F)(F)F)cn1 [Example 8] | 2.2 nM |  | increase in OX1R selectivity | 502 nM | 228 | 
CCN(C(=O)c1ccc(C)c(C)c1-n1nccn1)[C@@H](C)COc1ncc(C(F)(F)F)cn1 [Example 10] |  | 0.65 nM | increase | 565 nM | 869 | increase
CCN(C(=O)c1cccc(C)c1-n1nccn1)[C@@H](C)COc1ncc(C(F)(F)F)cn1 [Example 11] | 1.3 nM | 1.4 nM | increase | 160 nM |  | increase
CCN(C(=O)c1ccc(C)cc1-n1nccn1)[C@@H](C)COc1ncc(C(F)(F)F)cn1 [Example 13] | 0.5 nM | 0.38 nM | increase | 142 nM |  | increase
CCN(C(=O)c1cc(OC)ccc1-n1nccn1)[C@@H](C)COc1ncc(C(F)(F)F)cn1 [Example 14] | 0.97 nM | 1.21 nM | increase | 253 nM |  | increase
CCN(C(=O)c1ccccc1-c1nc(C)no1)[C@@H](C)COc1ncc(C(F)(F)F)cn1 [Example 15] | 7.8 nM |  | increase in OX1R selectivity | 999 nM | 128 | 
CCN(C(=O)c1cccc(F)c1-c1nnc(C)o1)[C@@H](C)COc1ncc(C(F)(F)F)cn1 [Example 18] | 16 nM |  | increase in OX1R selectivity | 6640 nM | 415 | 
CCN(C(=O)c1ccc(C)cc1-c1nnc(C)o1)[C@@H](C)COc1ncc(C(F)(F)F)cn1 [Example 19] | 7.3 nM |  | increase in OX1R selectivity | 6640 nM | 909 | 
CCN(C(=O)c1cc(F)ccc1-n1nccn1)[C@@H](C)COc1ncc(C(F)(F)F)cn1 [Example 20] | 2.6 nM |  | more selective | 803 nM | 309 | 
CCN(C(=O)c1cccc(C)c1-c1nnc(C)o1)[C@@H](C)COc1ncc(C(F)(F)F)cn1 [Example 21] | 2 nM | 1.9 nM | increase in OX1R selectivity | 540 nM |  | 
CCN(C(=O)c1cc(F)cc(F)c1-n1nccn1)[C@@H](C)COc1ncc(C(F)(F)F)cn1 [Example 22] | 3.6 nM |  | more selective | 1460 nM | 406 | 
CCN(C(=O)c1ccccc1-c1noc(C)n1)[C@@H](C)COc1ncc(C(F)(F)F)cn1 [Example 23] | 2.1 nM |  | increase in OX1R selectivity | 435 nM | 207 | 
CCN(C(=O)c1ccccc1-n1nccn1)[C@@H](C)COc1ncc(C(F)(F)F)cn1 [Example 24] | 1.8 nM | 2.6 nM |  | 237 nM |  | 
